Each structure is given as a SMILES string. Active and inactive are the calls of the source. The rule behind the calls is not given here.

In one data set the test system is KGN. The data set can be described thus: Protective effect against cisplatin-induced injury in human KGN cells assessed as cell survival at 5 uM incubated for 48 hrs by MTT assay. The class given is functional, cell-based. For orientation: Formazan colour is commonly taken as a measure of viable cells.
The nature of data set [1]: Cytotoxicity against human PDL cells assessed as cell viability at 50 uM incubated for 48 hrs by MTT assay. The class given is toxicity, cell-based.
A short description of data set [2]: Cytotoxicity against human MIHA cells assessed as cell viability at 50 uM incubated for 48 hrs by MTT assay. The class given is toxicity, cell-based.
The subject of the next data set is NRK. The data set can be described thus: Cytotoxicity against rat NRK cells assessed as cell viability at 50 uM incubated for 48 hrs by MTT assay. The class given is toxicity, cell-based.

Consider `COc1cc(/C=C2\CCC[C@@]3(C2=O)[C@@H](c2ccc(O)c(OC)c2)C(C)N[C@@]32C(=O)c3cccc4cccc2c34)ccc1O` (some centres not stated), for which the outcome in the data set on KGN was inactive.

For the compound `CN1C[C@H](c2ccccc2)[C@H](C(=O)/C=C/c2ccccc2)[C@]12C(=O)Nc1ccccc12`, the Activity entry (in data set [1]; in data set [2]; in the data set with NRK) was “Toxic” throughout.

Take `COc1ccccc1/C=C1\CCC[C@@]2(C1=O)[C@@H](c1ccccc1OC)C(C)N[C@@]21C(=O)c2cccc3cccc1c23` (some centres not stated): in the data set with KGN, the result was inactive.

As to `CC(O)C1N[C@@]2(C(=O)c3cccc4cccc2c34)[C@@]2(CCC/C(=C\c3ccccc3)C2=O)[C@H]1c1ccccc1` (some centres not stated), the outcome in the data set with KGN was Active.

Regarding `NC(=O)CC1N[C@@]2(C(=O)c3cccc4cccc2c34)[C@@]2(CCC/C(=C\c3ccccc3)C2=O)[C@H]1c1ccccc1` (some centres not stated), in the data set on KGN, the result was Active.

As for `CSCCC1N[C@@]2(C(=O)c3cccc4cccc2c34)[C@@]2(CCC/C(=C\c3ccccc3)C2=O)[C@H]1c1ccccc1` (some centres not stated), the result in the data set with KGN was inactive.

For `O=C1c2cccc3cccc(c23)[C@]12NC(Cc1c[nH]c3ccccc13)[C@H](c1ccccc1)[C@]21CCC/C(=C\c2ccccc2)C1=O` (some centres not stated), the outcome with KGN was Active.

Consider `CC1N[C@@]2(C(=O)c3cccc4cccc2c34)[C@@]2(CCC/C(=C\c3ccc(O)c(O)c3)C2=O)[C@H]1c1ccc(O)c(O)c1` (some centres not stated), for which the result with KGN was inactive.

Regarding `CN1C[C@H](c2ccccc2)[C@H](C(=O)/C=C/c2ccccc2)[C@]12C(=O)Nc1ccc(Cl)cc12`, the Activity result (in data set [1]; in data set [2]; with NRK) was “Toxic” each time.

As for `NC(=O)CCC1N[C@@]2(C(=O)c3cccc4cccc2c34)[C@@]2(CCC/C(=C\c3ccccc3)C2=O)[C@H]1c1ccccc1` (some centres not stated), the result with KGN was inactive.

Take `CN1C[C@H](c2ccccc2)[C@]2(CCC/C(=C\c3ccccc3)C2=O)[C@]12C(=O)Nc1ccccc12`: the Activity entry (in data set [1]; in data set [2]; in the data set on NRK) was “Non-Toxic” in each case.

For `CC(C)CC1N[C@@]2(C(=O)c3cccc4cccc2c34)[C@@]2(CCC/C(=C\c3ccccc3)C2=O)[C@H]1c1ccccc1` (some centres not stated), in the data set with KGN, the result was inactive.

For the compound `CC1N[C@@]2(C(=O)c3cccc4cccc2c34)[C@@]2(CCC/C(=C\c3ccc(Br)o3)C2=O)[C@H]1c1ccc(Br)o1` (some centres not stated), the outcome with KGN was Active.

With `CC1N[C@@]2(C(=O)c3cccc4cccc2c34)[C@@]2(CCC/C(=C\c3cc(F)cc(F)c3)C2=O)[C@H]1c1cc(F)cc(F)c1` (some centres not stated), the result in the data set with KGN was inactive.

Take `CN1C[C@H](c2ccccc2)[C@]2(CN(C(=O)OC(C)(C)C)C/C(=C\c3ccccc3)C2=O)[C@]12C(=O)Nc1ccccc12`: the Activity result (in data set [1]; in data set [2]; in the data set with NRK) was “Non-Toxic” throughout.

In the case of `CC1N[C@@]2(C(=O)c3cccc4cccc2c34)[C@@]2(CCC/C(=C\c3ccccc3C(F)(F)F)C2=O)[C@H]1c1ccccc1C(F)(F)F` (some centres not stated), the outcome in the data set on KGN was inactive.

On to `CC1N[C@@]2(C(=O)c3cccc4cccc2c34)[C@@]2(CCC/C(=C\c3ccc4ccccc4c3)C2=O)[C@H]1c1ccc2ccccc2c1` (some centres not stated), for which the result in the data set with KGN was Active.

Take `O=C(O)CCC1N[C@@]2(C(=O)c3cccc4cccc2c34)[C@@]2(CCC/C(=C\c3ccccc3)C2=O)[C@H]1c1ccccc1` (some centres not stated): in the data set on KGN, the outcome was inactive.

In the case of `CCOc1ccc(/C=C2\CCC[C@@]3(C2=O)[C@@H](c2ccc(OCC)cc2)C(C)N[C@@]32C(=O)c3cccc4cccc2c34)cc1` (some centres not stated), in the data set with KGN, the result was inactive.

Turning to `Cc1ccc(/C=C2\CCC[C@@]3(C2=O)[C@@H](c2ccc(C)s2)C(C)N[C@@]32C(=O)c3cccc4cccc2c34)s1` (some centres not stated), in the data set on KGN, the outcome was Active.

As for `CC1N[C@@]2(C(=O)c3cccc4cccc2c34)[C@@]2(CCC/C(=C\c3cc(Br)cs3)C2=O)[C@H]1c1cc(Br)cs1` (some centres not stated), the outcome in the data set on KGN was Active.

On to `O=C1c2cccc3cccc(c23)[C@]12NC(Cc1ccc(O)cc1)[C@H](c1ccccc1)[C@]21CCC/C(=C\c2ccccc2)C1=O` (some centres not stated), for which the result in the data set on KGN was inactive.

For `CC1N[C@@]2(C(=O)c3cccc4cccc2c34)[C@@]2(CCC/C(=C\c3ccc(Cl)c(Br)c3)C2=O)[C@H]1c1ccc(Cl)c(Br)c1` (some centres not stated), the outcome in the data set on KGN was inactive.

Turning to `CC1N[C@@]2(C(=O)c3cccc4cccc2c34)[C@@]2(CCC/C(=C\N3CCOCC3)C2=O)[C@H]1N1CCOCC1` (some centres not stated), the result in the data set on KGN was Active.

`CC1N[C@@]2(C(=O)c3cccc4cccc2c34)[C@@]2(CCC/C(=C\c3ccc(Cl)cc3)C2=O)[C@H]1c1ccc(Cl)cc1` (some centres not stated): the outcome with KGN was Active.

In the case of `O=C1c2cccc3cccc(c23)[C@]12NC(Cc1c[nH]cn1)[C@H](c1ccccc1)[C@]21CCC/C(=C\c2ccccc2)C1=O` (some centres not stated), in the data set with KGN, the outcome was inactive.

For `N=C(N)NCCCC1N[C@@]2(C(=O)c3cccc4cccc2c34)[C@@]2(CCC/C(=C\c3ccccc3)C2=O)[C@H]1c1ccccc1` (some centres not stated), in the data set on KGN, the result was inactive.

As to `CCOc1ccc(/C=C2\CCC[C@@]3(C2=O)[C@@H](c2ccc(OCC)c(OCC)c2)C(C)N[C@@]32C(=O)c3cccc4cccc2c34)cc1OCC` (some centres not stated), the result in the data set with KGN was inactive.

For `CC1N[C@@]2(C(=O)c3cccc4cccc2c34)[C@@]2(CCC/C(=C\c3ccc(Cl)c(Cl)c3)C2=O)[C@H]1c1ccc(Cl)c(Cl)c1` (some centres not stated), the outcome in the data set on KGN was inactive.

As to `CC1N[C@@]2(C(=O)c3cccc4cccc2c34)[C@@]2(CCC/C(=C\c3ccccc3Br)C2=O)[C@H]1c1ccccc1Br` (some centres not stated), the outcome in the data set with KGN was Active.

For `COc1ccc(/C=C2\CCC[C@@]3(C2=O)[C@@H](c2ccc(OC)c(O)c2)C(C)N[C@@]32C(=O)c3cccc4cccc2c34)cc1O` (some centres not stated), in the data set on KGN, the result was inactive.

Take `CC(C)C1N[C@@]2(C(=O)c3cccc4cccc2c34)[C@@]2(CCC/C(=C\c3ccccc3)C2=O)[C@H]1c1ccccc1` (some centres not stated): the outcome in the data set with KGN was inactive.

Take `COc1ccc(/C=C2\CCC[C@@]3(C2=O)[C@@H](c2ccc(OC)cc2OC)C(C)N[C@@]32C(=O)c3cccc4cccc2c34)c(OC)c1` (some centres not stated): in the data set with KGN, the result was inactive.

On to `O=C1c2cccc3cccc(c23)[C@]12NC(Cc1ccccc1)[C@H](c1ccccc1)[C@]21CCC/C(=C\c2ccccc2)C1=O` (some centres not stated), for which the outcome with KGN was Active.

For the compound `CN1C[C@H](c2ccccc2)[C@]2(CN(C(=O)OC(C)(C)C)C/C(=C\c3ccccc3)C2=O)[C@]12C(=O)Nc1ccc(F)cc12`, the Activity result (in data set [1]; in data set [2]; in the data set on NRK) was “Non-Toxic” throughout.

Turning to `O=C1c2cccc3cccc(c23)[C@]12NC(CO)[C@H](c1ccccc1)[C@]21CCC/C(=C\c2ccccc2)C1=O` (some centres not stated), the outcome in the data set on KGN was Active.

As for `CN1C[C@H](c2ccccc2)[C@H](C(=O)/C=C/c2ccccc2)[C@]12C(=O)Nc1ccc(F)cc12`, the Activity entry (in data set [1]; in data set [2]; with NRK) was “Toxic” in each case.

Turning to `CN1C[C@H](c2ccccc2)[C@]2(CCC/C(=C\c3ccccc3)C2=O)[C@]12C(=O)Nc1ccc(F)cc12`, the Activity result (in data set [1]; in data set [2]; with NRK) was “Non-Toxic” each time.

Turning to `O=C1c2cccc3cccc(c23)[C@]12N1CCC(O)C1[C@H](c1ccccc1)[C@]21CCC/C(=C\c2ccccc2)C1=O` (some centres not stated), in the data set on KGN, the outcome was Active.

In the case of `CC1N[C@@]2(C(=O)c3cccc4cccc2c34)[C@@]2(CCC/C(=C\c3ccc(Br)cc3)C2=O)[C@H]1c1ccc(Br)cc1` (some centres not stated), the outcome in the data set with KGN was Active.

For the compound `CC1N[C@@]2(C(=O)c3cccc4cccc2c34)[C@@]2(CCC/C(=C\c3ccc(O)cc3)C2=O)[C@H]1c1ccc(O)cc1` (some centres not stated), the outcome in the data set on KGN was inactive.

Turning to `CC1N[C@@]2(C(=O)c3cccc4cccc2c34)[C@@]2(CCC/C(=C\c3ccccc3Cl)C2=O)[C@H]1c1ccccc1Cl` (some centres not stated), in the data set on KGN, the result was Active.

As for `CC1N[C@@]2(C(=O)c3cccc4cccc2c34)[C@@]2(CCC/C(=C\c3ccc(Cl)cc3Cl)C2=O)[C@H]1c1ccc(Cl)cc1Cl` (some centres not stated), the outcome in the data set on KGN was inactive.

As to `CN1C[C@H](c2ccccc2)[C@]2(COC/C(=C\c3ccccc3)C2=O)[C@]12C(=O)Nc1ccc(F)cc12`, the Activity result (in data set [1]; in data set [2]; with NRK) was “Non-Toxic” each time.

As for `CN1C[C@H](c2ccccc2)[C@]2(CCC/C(=C\c3ccccc3)C2=O)[C@]12C(=O)Nc1ccc(Cl)cc12`, the Activity entry (in data set [1]; in data set [2]; in the data set with NRK) was “Non-Toxic” throughout.

For the compound `CCC(C)C1N[C@@]2(C(=O)c3cccc4cccc2c34)[C@@]2(CCC/C(=C\c3ccccc3)C2=O)[C@H]1c1ccccc1` (some centres not stated), in the data set with KGN, the outcome was inactive.

In the case of `CC1N[C@@]2(C(=O)c3cccc4cccc2c34)[C@@]2(CCC/C(=C\c3cccc(O)c3)C2=O)[C@H]1c1cccc(O)c1` (some centres not stated), in the data set with KGN, the result was inactive.

`CN1C[C@H](c2ccccc2)C2(CN(C(=O)OC(C)(C)C)C/C(=C\c3ccccc3)C2=O)[C@]12C(=O)c1cccc3cccc2c13` (single isomer, unassigned): the Activity result (in data set [1]; in data set [2]; with NRK) was “Non-Toxic” throughout.

Take `CN1C[C@H](c2ccccc2)[C@]2(CN(C(=O)OC(C)(C)C)C/C(=C\c3ccccc3)C2=O)[C@]12C(=O)Nc1ccc(Cl)cc12`: the Activity entry (in data set [1]; in data set [2]; in the data set on NRK) was “Non-Toxic” in each case.

Turning to `CN1C[C@H](c2ccccc2)[C@]2(COC/C(=C\c3ccccc3)C2=O)[C@]12C(=O)Nc1ccc(Cl)cc12`, the Activity entry (in data set [1]; in data set [2]; in the data set on NRK) was “Non-Toxic” throughout.

Regarding `CN1C[C@H](c2ccccc2)[C@]2(COC/C(=C\c3ccccc3)C2=O)[C@]12C(=O)Nc1ccccc12`, the Activity result (in data set [1]; in data set [2]; in the data set on NRK) was “Non-Toxic” each time.
